For data set [1], the target named is T1, mushroom tyrosinase (Agaricus bisporus, UniProt C7FF04). The data set can be described thus: Inhibitory effect on mushroom tyrosinase (diphenolase activity, oxidation of L-DOPA). It is filed as biochemical. Particulars: for IC50: 1 mM L-DOPA substrate, 25°C, 30 min, means ± SD of three replicates, read-out: IC50 against diphenolase activity of mushroom tyrosinase (converted). On the procedure: In a 96-well plate, 20 μL of 0, 0.01, 0.05, 0.1, 0.2, 0.5, and 1 mg/mL of N-acetyl-pentapeptides was mixed with 160 μL of 1 mM L-DOPA. After 20 μL of 212.65 μg/mL of mushroom tyrosinase (in 50 mM potassium phosphate buffer) was added, the solutions were incubated at 25°C for 30 min. All experiments were conducted in triplicate. The absorbance was measured at 475 nm by using an ELISA reader (TECAN, Austria). The tyrosinase inhibitory activity was calculated using the following equation: [(Δcontrol − Δsample)/Δcontrol] × 100%. The IC50 value was determined using regression of a constructing dose-response curve at which 50% target activity is lost.

For data set [2], the target named is T1, mushroom tyrosinase. Description: Kinetic analysis of tyrosinase inhibition (Lineweaver-Burk plots). It is filed as biochemical. The settings on record: for Inhibition type: Lineweaver-Burk plot analysis; for K IS: inhibition constant from secondary plot (enzyme-substrate complex); for K IS / Ki: L-DOPA 0.25-4 mM, inhibitor 0, 0.1, 0.2 mg/mL; for Ki: inhibition constant from secondary plot. On the procedure:
In a 96-well plate, the kinetic properties of N-acetyl-pentapeptides (20 μL of 0, 0.1, and 0.2 mg/mL) in the inhibition of tyrosinase (20 μL of 212.65 μg/mL) were determined using various concentrations of L-DOPA (160 μL of 0.25, 0.5, 1, 2, and 4 mM) as substrates. The reaction mixture was measured using an ELISA reader at 475 nm for 10 min. All experiments were conducted in triplicate. The inhibition mechanism was assessed using Lineweaver-Burk plots, and the inhibition constants K IS and K I were obtained from second plots of the apparent 1/V max and apparent K m/V max against the inhibitor concentration, respectively, as described by Liao et al..

For a further data set, the system named is B16F10 melanoma cells. Description: Assessment of cellular melanin content (α-MSH-induced melanogenesis). It is filed as cell-based, mouse. The procedure: Cellular melanin content was determined as described previously. Briefly, 1 × 10^5 B16F10 cells were seeded in 24-well plates and cultured at 37°C and 5% CO2 for 48 h. Subsequently, the cells were treated with 100 nM α-MSH for 24 h, followed by various concentrations (0, 0.1, 0.5, and 1 mg/mL) of Ac-P4 or kojic acid for 24 h. The cells were washed twice with PBS and cell pellets were then dissolved in 100 μL of 1 N NaOH in 10% DMSO, for 1 h at 80°C. The relative melanin content was determined by measuring the absorbance at 405 nm, using the ELISA reader (TECAN, Austria). The melanin content was calculated using the following equation: (Δsample/Δcontrol) × 100%. All determinations were performed in triplicate.

A further data set has as its system diphenolase. Details: method as in PMID 7714722. The settings on record: ref [40], [41]; cited from earlier work.
The subject of a further data set is B16F10 cells. Description: Cell viability assay (MTT). In kind it is cell-based, mouse. Particulars: 0.1 to 1 mg/mL, 24 h. On the procedure:
B16F10 cells were cultured in Dulbecco's modified Eagle's medium (DMEM; Gibco Life Technologies, Carlsbad, CA, USA), supplemented with 10% fetal bovine serum, 100 units/mL of penicillin G, 100 μg/mL of streptomycin, and 0.25 μg/mL of amphotericin, and then incubated at 37°C with 5% CO2. The viability of cells treated with N-acetyl-pentapeptides was determined using an MTT assay. Briefly, 3 × 10^4 B16F10 cells were seeded and adhered in 96-well plates. After 24 h, DMEM was removed and 200 μL of various concentrations of fresh DMEM and N-acetyl-pentapeptide solution were added, and the cells were incubated for 24 h. After incubation, the medium was removed, and 100 μL of MTT in PBS solution (0.5 mg/mL) was added to each well, and the cells were incubated for 40 min at 37°C. Subsequently, the MTT solution was removed and 100 μL of DMSO was added to each well, and the plate was gently shaken to dissolve the formazan crystals. The absorbance of each well was measured at 570 nm, using the ELISA reader. All determinations were performed in triplicate.

The target of data set [3] is T2, intracellular tyrosinase activity in B16F10 cells (Mus musculus, UniProt P11344).
T2 construct: Cell lysate; endogenous in cells; host or cells: B16F10 mouse melanoma cells (BCRC, Hsinchu, Taiwan), α-MSH-stimulated
T2 sequence (P11344 19-533): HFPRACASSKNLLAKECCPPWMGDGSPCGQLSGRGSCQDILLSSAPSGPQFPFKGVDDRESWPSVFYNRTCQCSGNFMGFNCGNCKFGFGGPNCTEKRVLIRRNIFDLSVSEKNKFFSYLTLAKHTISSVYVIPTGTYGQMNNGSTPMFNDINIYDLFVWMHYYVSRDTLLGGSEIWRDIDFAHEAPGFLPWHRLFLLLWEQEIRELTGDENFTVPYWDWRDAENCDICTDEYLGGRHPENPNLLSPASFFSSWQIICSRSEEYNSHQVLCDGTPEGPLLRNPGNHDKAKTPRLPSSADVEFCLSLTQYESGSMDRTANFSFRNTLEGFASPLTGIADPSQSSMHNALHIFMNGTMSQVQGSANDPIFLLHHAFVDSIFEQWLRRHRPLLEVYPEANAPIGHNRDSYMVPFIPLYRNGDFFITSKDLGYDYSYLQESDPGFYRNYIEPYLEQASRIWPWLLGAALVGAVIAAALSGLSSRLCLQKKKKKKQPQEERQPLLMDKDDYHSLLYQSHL
The data set can be described thus: Measurement of intracellular tyrosinase activity (α-MSH-induced). In kind it is cell-based. The settings on record: B16-F10, 1 mg/ml, 24 h after 100 nM α-MSH. The procedure: Fig 1. Inhibitory effects of Ac-P4 on α-MSH-induced tyrosinase activity in B16F10 cells. Ac-P4 inhibited α-MSH-induced tyrosinase activity in a dose-dependent manner […]
Measurement of intracellular tyrosinase activity
The cells were seeded in 24-well plates (8 × 10^4 cells/well), and cultured in 37 °C, 5% CO2 for 24 h. Then the cells were treated with 100 nM α-MSH for 24 h and then added Ac-P4 for 24 h. Cells rinsed with PBS twice and lysed with phosphate buffer (pH 6.8) containing 1% Triton X-100 followed by freezing and thawing three times. Centrifugation at 15,000 rpm for 10 min obtained clarified lysates. Cell lysate (90 μL) mixed with fresh prepared L-DOPA (10 μL) at 37 °C for 30 min. Tyrosinase activity was evaluated by the absorbance at 475 nm using an ELISA reader (Tecan, […]
Tyrosinase activity (%) = (△Abssample/△Abscontrol) ×100%.
(also on this page, place not known: (mg/ml)control 0 0.1 0.5 Relative (% control) 0 50 150 200 250 α-MSH + α-MSH - + + + + * 1 of 100 Ac-P4 Tyrosinase activity)
(1 picture or pasted object on this page, not shown here)

T1 sequence (C7FF04 1-392): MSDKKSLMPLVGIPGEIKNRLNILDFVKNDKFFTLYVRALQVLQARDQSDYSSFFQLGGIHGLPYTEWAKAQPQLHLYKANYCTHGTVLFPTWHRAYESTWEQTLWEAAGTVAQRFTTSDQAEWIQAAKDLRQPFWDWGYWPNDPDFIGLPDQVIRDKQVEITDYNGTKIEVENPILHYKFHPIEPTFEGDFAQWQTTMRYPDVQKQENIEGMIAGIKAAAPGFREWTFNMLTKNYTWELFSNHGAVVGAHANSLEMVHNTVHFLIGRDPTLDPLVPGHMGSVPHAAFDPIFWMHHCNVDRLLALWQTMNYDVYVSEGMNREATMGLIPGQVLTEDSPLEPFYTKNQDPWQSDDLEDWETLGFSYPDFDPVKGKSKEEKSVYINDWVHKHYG

As for Ac-RSRFK-OH [Ac-P1, Ac-RSRFK], the IC50 (as a rule, the concentration at which inhibition is half-maximal) on mushroom tyrosinase [1] is 1020 µM. This compound displayed a lag time on mushroom tyrosinase [1] (peptide concentration 1 mg/mL) of 110 s. Also, at mushroom tyrosinase [2], the Inhibition type result is listed as “Mixed”; the “K IS” value was determined as 1.278 mg/mL; the Ki – broadly, the equilibrium dissociation constant of an inhibitor or competing ligand from its target – is 376 µM.
Regarding `O=c1cc(CO)occ1O` [kojic acid, reference compound], the inhibition at 100 µg/mL in the data set with B16F10 melanoma cells (Mus musculus, B16-F10, 0.1 mg/mL, 24 h after 100 nM α-MSH, read-out: inhibitory effect on melanin production) came to 47.2%. Further, the inhibition at 500 µg/mL in the data set with B16F10 melanoma cells (Mus musculus, B16-F10, 0.5 mg/mL, 24 h after 100 nM α-MSH, read-out: inhibitory effect on melanin production) was 70.6%. The inhibition at 1000 µg/mL in the data set on B16F10 melanoma cells (Mus musculus, B16-F10, 1 mg/mL, 24 h after 100 nM α-MSH, read-out: inhibitory effect on melanin production) came to 98.6%. Further, in the data set on B16F10 melanoma cells (Mus musculus, B16-F10, B16F10, α-MSH-induced, reillustrated in molarity, read-out: IC50 for inhibitory effect on melanin content), the IC50 amounted to 1510 µM. In addition, the “inhibition type on diphenolase” value in the data set with diphenolase is listed as “mixed-type”.
For the compound Ac-RSRFS-OH [Ac-P4, Ac-RSRFS], the results for the lag time on mushroom tyrosinase [1] (peptide concentration 0.5 mg/mL (b28 words it as concentrations less than 0.5 mg/mL)) and on mushroom tyrosinase [1] (peptide concentration 1 mg/mL) were 80 s and 500 s, respectively. Further, the Inhibition type entry on mushroom tyrosinase [2] is reported as “Mixed”. At mushroom tyrosinase [2], the “K IS” value is 0.517 mg/mL. In addition, the “cytotoxicity in B16F10 cells” value in the data set with B16F10 cells was “did not induce any significant cytotoxicity”. For the same compound, the “inhibitory effect on melanin production” value in the data set on B16F10 melanoma cells (0.1 mg/mL, 24 h after 100 nM α-MSH) is reported as 48.63%; in the data set on B16F10 melanoma cells (0.5 mg/mL, 24 h after 100 nM α-MSH) it was 78.18%; in the data set on B16F10 melanoma cells (1 mg/mL, 24 h after 100 nM α-MSH) it was 94.7%. The “fold stronger than kojic acid in inhibiting melanin formation” value in the data set on B16F10 melanoma cells (ratio of melanin content IC50s (mM)) was found to be 16.7 fold. In data set [3], the inhibition at 1000 µg/mL came to 57.9%.
Take Ac-KSRFR-OH [Ac-P2, Ac-KSRFR]: the IC50 on mushroom tyrosinase [1] is 1060 µM. The same compound registered a lag time on mushroom tyrosinase [1] (peptide concentration 1 mg/mL) of 80 s. For the same compound, at mushroom tyrosinase [2], the Inhibition type entry is recorded as “Mixed”, the “K IS” value is 2.003 mg/mL and the Ki was 382 µM.
Take Ac-KSSFR-OH [Ac-P3, Ac-KSSFR]: the 50% inhibitory concentration (IC50) at mushroom tyrosinase [1] is 1220 µM. In addition, the lag time at mushroom tyrosinase [1] (peptide concentration 1 mg/mL) came out at 70 s. Moreover, at mushroom tyrosinase [2], the Inhibition type result is on record as “Mixed”, the “K IS” value came to 1.685 mg/mL and affinity was put at a Ki of 415 µM.

The values above are taken from paper PMC4130364, “Kinetics of Mushroom Tyrosinase and Melanogenesis Inhibition by N-Acetyl-pentapeptides” (The Scientific World Journal, 2014).
